Test system: Nesprin-2 (SYNE2)
Experiment: Assay for upregulation of Nesprin-2 mRNA (Panomics Quantigene multiplex branched DNA assay) in fibroblasts
Assay type: cell-based, human
Conditions: 24 hours, vs vehicle control
Protocol: A variety of botanical extract and synthetic compounds were tested for the ability to up-regulate […]-2 (SYNE2), Gene Accession Number-NM-182914.2. Normal human dermal fibroblasts or keratinocytes were cultured in 96-well tissue culture treated plates, containing appropriate culture medium. Stock solutions of actives were made in an appropriate vehicle (water/Ethanol/DMSO). Cells were treated with test material or respective vehicle control diluted in growth medium for 24 hours in a humidified 37° C. incubator with 10% CO2. The concentrations of each extract are provided based on the dry weight of the given plant extract, by which is meant the weight of the extract after volatile extraction solvents have been removed. After incubation, growth medium from each plate was removed and 100 μL of lysis buffer was added to the wells and placed in 37° C. incubator with 10% CO2 for 30 minutes. At the end of incubation, the cells are collected in freezer plates and placed in -80° C. freezer, until analysis. Changes in mRNA for after treatment were analysed using Panomics Quantigene multiplex assay that employs a branched DNA technology, following manufacturer's instructions (Affymetrix, CA). Percent increase (up-regulation) in mRNA for the […]-2 was calculated by comparing the test results to the control.

`C[C@@H]1NC(=O)N[C@@H]1CCCCCC(=O)O` [D-Desthiobiotin] was tested, and the “Nesprin-2 (percent up-regulation in mRNA, scaled score)” value (0.0001%) was “++++ (0.001%, (>80 (++++))” and the “Nesprin-2 (percent up-regulation in mRNA, scaled score)” value (0.001%) was “++++ (0.001%, (>80 (++++))”.

From patent publication US20140161917A1, “Use of Nesprin-2 Expression Modulators and Compositions Thereof” (Avon Products, Inc., priority 2012, published 2014)
